# The supplement of paper PMC9663587
# Columns and labels:
# R0-3306 = compound: C1=CC2=C(C=CC(=C2)C=C3C(=O)NC(=NCC4=CC=CS4)S3)N=C1 [R0-3306]
# Paclitaxel = compound: CC(=O)O[C@H]1C(=O)[C@@]2(C)[C@H]([C@H](OC(=O)c3ccccc3)[C@]3(O)C[C@H](OC(=O)[C@H](O)[C@@H](NC(=O)c4ccccc4)c4ccccc4)C(C)=C1C3(C)C)[C@]1(OC(C)=O)CO[C@@H]1C[C@@H]2O [Paclitaxel]
# BSJ-03-123 [1] = compound: T1, CC(=O)c1c(C)c2cnc(Nc3ccc(N4CCN(CCOCCOCCOCCNC(=O)COc5cccc6c5C(=O)N(C5CCC(=O)NC5=O)C6=O)CC4)cn3)nc2n(C2CCCC2)c1=O [BSJ-03-123]
# BVD523 = compound: CC(C)Nc1cc(-c2c[nH]c(C(=O)N[C@H](CO)c3cccc(Cl)c3)c2)c(Cl)cn1 [BVD523]
# [2] = compound: CCC1=CN=CN=C1N2CCN(CC2)CC3=NC4=C(N3)C=C(C=C4)C(F)(F)F
# Neratinib/HKI272 = compound: CCOc1cc2ncc(C#N)c(Nc3ccc(OCc4ccccn4)c(Cl)c3)c2cc1NC(=O)/C=C/CN(C)C [Neratinib/HKI272]
# Flavopiridol [3] = compound: T2, CN1CC[C@H](c2c(O)cc(O)c3c(=O)cc(-c4ccccc4Cl)oc23)[C@H](O)C1 [Flavopiridol]
# [4] = compound: CO[C@@H](C)Cn1c(=O)n(C)c2cnc3ccc(-c4cncc(C(C)(C)O)c4)cc3c21
# AZD5363 = compound: NC1(C(=O)N[C@@H](CCO)c2ccc(Cl)cc2)CCN(c2nc[nH]c3nccc2-3)CC1 [AZD5363]
# YKL-5-124 = compound: C=CC(=O)Nc1ccc(C(=O)Nc2[nH]nc3c2CN(C(=O)N[C@H](CN(C)C)c2ccccc2)C3(C)C)cc1 [YKL-5-124]; assay: GR value, 72 h; higher = faster growth (1 = untreated, <0 = killing);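 also: breast cancer and non-malignant breast epithelial lines, nine half-log doses, viable cells counted by Hoechst and LIVE/DEAD dye imaging versus time-zero plates and DMSO controls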
# BSJ-03-123 [5] = compound: T1, BSJ-03-123; assay: as above
# [6] = compound: CCN1CCN(Cc2ccc(Nc3ncc(F)c(-c4cc(F)c5nc(C)n(C(C)C)c5c4)n3)nc2)CC1; assay: as above
# [7] = compound: CCc1cnn2c(NCc3ccc[n+]([O-])c3)cc(N3CCCC[C@H]3CCO)nc12; assay: as above
# LEE011/Ribociclib = compound: CN(C)C(=O)c1cc2cnc(Nc3ccc(N4CCNCC4)cn3)nc2n1C1CCCC1 [LEE011/Ribociclib]; assay: as above
# THZ531 = compound: CN(C)C/C=C/C(=O)Nc1ccc(C(=O)N2CCC[C@@H](Nc3ncc(Cl)c(-c4c[nH]c5ccccc45)n3)C2)cc1 [THZ531]; assay: as above
# THZ1 = compound: CN(C)C/C=C/C(=O)Nc1ccc(C(=O)Nc2cccc(Nc3ncc(Cl)c(-c4c[nH]c5ccccc45)n3)c2)cc1 [THZ1]; assay: as above
# Flavopiridol [8] = compound: T2, Flavopiridol; assay: as above
# 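For GR50, 72 h in this document: breast cancer and non-malignant breast epithelial cell lines, Deep Dye Drop or Dye Drop imaging, nine half-log doses, GR normalized to time-zero plates and DMSO-only controls.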
cell line,measurement,setting,value
HCC1937,"GR50, 72 h",R0-3306,5.17 µM
same,"GR50, 72 h",Paclitaxel,0.00245 µM
same,"GR50, 72 h",BSJ-03-123 [1],9.94 µM
same,"GR50, 72 h",BVD523,> 10 µM
same,"GR50, 72 h",[2],> 10 µM
same,"GR50, 72 h",Neratinib/HKI272,1.46 µM
same,"GR50, 72 h",Flavopiridol [3],0.168 µM
same,"GR50, 72 h",[4],0.139 µM
same,"GR50, 72 h",AZD5363,> 10 µM
same,GR value,YKL-5-124; 0.001 µM,0.676 GR
same,GR value,YKL-5-124; 0.003162 µM,0.451 GR
same,GR value,YKL-5-124; 0.01 µM,0.249 GR
same,GR value,YKL-5-124; 0.03162 µM,0.165 GR
same,GR value,YKL-5-124; 0.1 µM,0.0669 GR
same,GR value,YKL-5-124; 0.3162 µM,0.0473 GR
same,GR value,YKL-5-124; 1 µM,-0.0273 GR
same,GR value,YKL-5-124; 3.162 µM,-0.052 GR
same,GR value,YKL-5-124; 10 µM,-0.196 GR
same,GR value,BSJ-03-123 [5]; 0.001 µM,1.11 GR
same,GR value,BSJ-03-123 [5]; 0.003162 µM,1.04 GR
same,GR value,BSJ-03-123 [5]; 0.01 µM,0.933 GR
same,GR value,BSJ-03-123 [5]; 0.03162 µM,1.05 GR
same,GR value,BSJ-03-123 [5]; 0.1 µM,0.961 GR
same,GR value,BSJ-03-123 [5]; 0.3162 µM,1.03 GR
same,GR value,BSJ-03-123 [5]; 1 µM,0.918 GR
same,GR value,BSJ-03-123 [5]; 3.162 µM,0.977 GR
same,GR value,BSJ-03-123 [5]; 10 µM,0.525 GR
same,GR value,[6]; 0.001 µM,1.03 GR
same,GR value,[6]; 0.003162 µM,1.04 GR
same,GR value,[6]; 0.01 µM,1.06 GR
same,GR value,[6]; 0.03162 µM,1.08 GR
same,GR value,[6]; 0.1 µM,0.973 GR
same,GR value,[6]; 0.3162 µM,0.941 GR
same,GR value,[6]; 1 µM,0.81 GR
same,GR value,[6]; 3.162 µM,0.598 GR
same,GR value,[6]; 10 µM,0.321 GR
same,GR value,[7]; 0.0001 µM,1.02 GR
same,GR value,[7]; 0.0003162 µM,1.03 GR
same,GR value,[7]; 0.001 µM,1.06 GR
same,GR value,[7]; 0.003162 µM,1.1 GR
same,GR value,[7]; 0.01 µM,0.983 GR
same,GR value,[7]; 0.03162 µM,0.0186 GR
same,GR value,[7]; 0.1 µM,-0.185 GR
same,GR value,[7]; 0.3162 µM,-0.211 GR
same,GR value,[7]; 1 µM,-0.206 GR
same,GR value,LEE011/Ribociclib; 0.001 µM,0.945 GR
same,GR value,LEE011/Ribociclib; 0.003162 µM,0.893 GR
same,GR value,LEE011/Ribociclib; 0.01 µM,1.14 GR
same,GR value,LEE011/Ribociclib; 0.03162 µM,1.02 GR
same,GR value,LEE011/Ribociclib; 0.1 µM,1 GR
same,GR value,LEE011/Ribociclib; 0.3162 µM,0.875 GR
same,GR value,LEE011/Ribociclib; 1 µM,0.964 GR
same,GR value,LEE011/Ribociclib; 3.162 µM,1.02 GR
same,GR value,LEE011/Ribociclib; 10 µM,1.11 GR
same,GR value,THZ531; 0.0001 µM,0.85 GR
same,GR value,THZ531; 0.0003162 µM,1 GR
same,GR value,THZ531; 0.001 µM,0.958 GR
same,GR value,THZ531; 0.003162 µM,1.01 GR
same,GR value,THZ531; 0.01 µM,1.09 GR
same,GR value,THZ531; 0.03162 µM,1.16 GR
same,GR value,THZ531; 0.1 µM,0.954 GR
same,GR value,THZ531; 0.3162 µM,0.219 GR
same,GR value,THZ531; 1 µM,-0.302 GR
same,GR value,THZ1; 0.0001 µM,0.926 GR
same,GR value,THZ1; 0.0003162 µM,0.922 GR
same,GR value,THZ1; 0.001 µM,0.98 GR
same,GR value,THZ1; 0.003162 µM,1.05 GR
same,GR value,THZ1; 0.01 µM,1.14 GR
same,GR value,THZ1; 0.03162 µM,0.808 GR
same,GR value,THZ1; 0.1 µM,0.104 GR
same,GR value,THZ1; 0.3162 µM,-0.107 GR
same,GR value,THZ1; 1 µM,-0.38 GR
same,GR value,Flavopiridol [8]; 0.0001 µM,1.08 GR
same,GR value,Flavopiridol [8]; 0.0003162 µM,1.02 GR
same,GR value,Flavopiridol [8]; 0.001 µM,0.946 GR
same,GR value,Flavopiridol [8]; 0.003162 µM,1.01 GR
same,GR value,Flavopiridol [8]; 0.01 µM,0.918 GR
same,GR value,Flavopiridol [8]; 0.03162 µM,1.01 GR
same,GR value,Flavopiridol [8]; 0.1 µM,0.691 GR
same,GR value,Flavopiridol [8]; 0.3162 µM,0.19 GR
same,GR value,Flavopiridol [8]; 1 µM,-0.211 GR
